Patent US11066416B2, “Rapafucin derivative compounds and methods of use thereof” (The Johns Hopkins University, priority 2016, dated 2021)

tested on: nucleoside uptake (3H-Thymidine); assay: Nucleoside uptake assay (uptake) using 3H-Thymidine, IC50, cell line as indicated in each table (none given in Table 8); assay type: cell-based; settings: 3H-Thymidine uptake; cell line not given
Description: Nucleoside Uptake Assay (uptake). Nuceloside uptake assays were performed with using 3H-Thymidine as described in Guo et al. (2018) Nat. Chem. 11:254-63. Specific cell lines are indicated in each assay and cultured in complete growth media. Activity is scored according to the IC50 values relative to DMSO control. “Low” indicates an IC50 greater than 600 nM, “Medium” indicates an IC50 between 300 nM and 600 nM “High” indicates an IC50 less than 300 nM. “Rel.Uptake” refers to uptake activity characterization relative to a single concentration assay. “Low” indicates a response greater than 0.6 times the activity relative to DMSO, “Medium” indicates a response between 0.6 and 0.3 times the activity relative to DMSO, “High” indicates a response less than 0.3 times the activity relative to DMSO.

IC50 [nM]	Compound
33.5	COc1ccc(CC[C@H]2OC(=O)[C@@H]3CCCCN3C(=O)C(=O)C(C)(C)COC(=O)/C=C/CCN(C)C(=O)[C@H](C(C)C)N(C)C(=O)[C@@H]3CCCN3C(=O)[C@@H](Cc3ccccc3)N(C)C(=O)[C@H](C)NC(=O)COc3cccc2c3)cc1OC [Compound 1612]
59.5	COCC[C@@H]1NC(=O)COc2cccc(c2)[C@@H](CCc2ccc(OC)c(OC)c2)OC(=O)[C@@H]2CCCCN2C(=O)C(=O)C(C)(C)COC(=O)/C=C/CCN(C)C(=O)[C@H](C(C)C)N(C)C(=O)[C@@H]2CCCN2C(=O)[C@@H](Cc2ccccc2)N(C)C1=O [Compound 1613]
12.2	CCC[C@@H]1NC(=O)CCC(=O)Nc2cccc(c2)[C@@H](CCc2ccc(OC)c(OC)c2)OC(=O)[C@@H]2CCCCN2C(=O)C(=O)C(C)(C)COC(=O)/C=C/CCN(C)C(=O)[C@H]([C@@H](C)CC)N(C)C(=O)[C@@H]2CCCN2C(=O)[C@@H](Cc2ccccc2)N(C)C1=O [Compound 1615]
173	CCC[C@@H]1NC(=O)COc2cccc(c2)[C@@H](CCc2ccc(OC)c(OC)c2)OC(=O)[C@@H]2CCCCN2C(=O)C(=O)C(C)(C)COC(=O)/C=C/CCN(C)C(=O)[C@H]([C@@H](C)CC)N(C)C(=O)[C@@H]2CCCN2C(=O)[C@@H](Cc2ccccc2)N(C)C1=O [Compound 1618]
66.7	COc1ccc(CC[C@H]2OC(=O)[C@@H]3CCCCN3C(=O)C(=O)C(C)(C)COC(=O)/C=C/CCN(C)C(=O)[C@H](C)N(C)C(=O)[C@@H]3CCCN3C(=O)[C@@H](Cc3ccccc3)N(C)C(=O)[C@H](C)NC(=O)COc3cccc2c3)cc1OC [Compound 1619]
28.5	COc1ccc(CC[C@H]2OC(=O)[C@@H]3CCCCN3C(=O)C(=O)C(C)(C)COC(=O)C=CCCN(C)C(=O)[C@H](CC(C)C)N(C)C(=O)[C@@H]3CCCN3C(=O)[C@@H](Cc3ccccc3)N(C)C(=O)CNC(=O)COc3cccc2c3)cc1OC [Compound 1622]
10.5	COc1ccc(CC[C@H]2OC(=O)[C@@H]3CCCCN3C(=O)C(=O)C(C)(C)COC(=O)C=CCCN(C)C(=O)[C@H](CC(C)C)N(C)C(=O)[C@@H]3CCCN3C(=O)[C@@H](Cc3ccccc3)N(C)C(=O)[C@H](C)NC(=O)COc3cccc2c3)cc1OC [Compound 1623]
31.4	COc1ccc(CC[C@H]2OC(=O)[C@@H]3CCCCN3C(=O)C(=O)C(C)(C)COC(=O)C=CCCN(C)C(=O)[C@H](CC(C)C)N(C)C(=O)[C@@H]3CCCN3C(=O)[C@@H](Cc3ccccc3)N(C)C(=O)[C@H](C)NC(=O)CCC(=O)Nc3cccc2c3)cc1OC [Compound 1624]

Compound	IC50 [nM]
CC[C@H](C)[C@H]1C(=O)N(C)CC/C=C/C(=O)OCC(C)(C)C(=O)C(=O)N2CCCC[C@H]2C(=O)O[C@H](CCc2ccc(OC)c(OC)c2)c2cccc(c2)NC(=O)CCC(=O)N[C@@H](C)C(=O)N(C)[C@H](Cc2ccccc2)C(=O)N2CCC[C@H]2C(=O)N1C [Compound 1614]	34.4
CC[C@H](C)[C@H]1C(=O)N(C)CC/C=C/C(=O)OCC(C)(C)C(=O)C(=O)N2CCCC[C@H]2C(=O)O[C@H](CCc2ccc(OC)c(OC)c2)c2cccc(c2)NC(=O)CCC(=O)N[C@@H](c2ccccc2)C(=O)N(C)[C@H](Cc2ccccc2)C(=O)N2CCC[C@H]2C(=O)N1C [Compound 1616]	100
CC[C@H](C)[C@H]1C(=O)N(C)CC/C=C/C(=O)OCC(C)(C)C(=O)C(=O)N2CCCC[C@H]2C(=O)O[C@H](CCc2ccc(OC)c(OC)c2)c2cccc(c2)OCC(=O)N[C@@H](C)C(=O)N(C)[C@H](Cc2ccccc2)C(=O)N2CCC[C@H]2C(=O)N1C [Compound 1617]	34.1
CCCC[C@H]1C(=O)N(C)CC/C=C/C(=O)OCC(C)(C)C(=O)C(=O)N2CCCC[C@H]2C(=O)O[C@H](CCc2ccc(OC)c(OC)c2)c2cccc(c2)OCC(=O)NCC(=O)N(C)[C@H](Cc2ccccc2)C(=O)N2CCC[C@H]2C(=O)N1C [Compound 1620]	13.9
CCCC[C@H]1C(=O)N(C)CCC=CC(=O)OCC(C)(C)C(=O)C(=O)N2CCCC[C@H]2C(=O)O[C@H](CCc2ccc(OC)c(OC)c2)c2cccc(c2)OCC(=O)N[C@@H](C)C(=O)N(C)[C@H](Cc2ccccc2)C(=O)N2CCC[C@H]2C(=O)N1C [Compound 1621]	9.76
